Experimental data as given in patent US20250263370A1 (Tay Therapeutics Limited, priority 2022, published 2025).
Several values for one entry are separate records, joined by “and”; a condition that tells them apart may be missing. Equal values may be shown once. Entries after “also recorded” stand apart in the source; their conditions may differ.

System: collagen-induced arthritis
Assay: Collagen-induced arthritis (CIA) model in rats: body weight, paw volume, clinical scores, clinical observations
Details: CIA rats
[1] = 3 mg/kg twice daily P.O. (group 5)
[2] = 3 mg/kg twice daily P.O. (group 5), day 13
[3] = 3 mg/kg twice daily P.O. (group 5), day 14
[4] = 3 mg/kg twice daily P.O. (group 5), days 18, 19 and 21
[5] = 10 mg/kg twice daily P.O. (group 6)
[6] = 10 mg/kg twice daily P.O. (group 6), day 12
[7] = 10 mg/kg twice daily P.O. (group 6), day 14

Protocol: Prior to be randomly placed in treatment groups, animals were weighed, and paw volume was measured. Once randomly assigned to treatment groups, on Day 0, animals in groups 2-9 were immunized by subcutaneous injection at the base of the tail.
The immunization comprised 100 μL of the CFA+Collagen emulsion (prepared according to the method in Experimental Method A). Animals in group one received no immunization. Seven days after the first injection, animals in groups 2-9 received a booster immunization comprising 200 μL of the IFA+Collagen emulsion (prepared according to the method in Experimental Method A).
Starting on Day 0, animals in group 1 and 2 were administered daily doses of the vehicle per os (P.O.) for 21 days. […] The twice daily doses for animals in groups 4-9 were 8 hours apart (e.g., the first dose at 8:00 AM and the second dose at 4:00 PM).
Body weight of all animals was recorded daily for the 21-day period. Blind clinical scores on all four limbs were conducted for all animals in the study. Animals were assessed prior to receiving their first dose of the compound or control, and scores for each limb were combined to a total daily score for each animal. Clinical score assessments were performed on Day 0, 6, 12, 13, 14, 15, 18, 19, and 21 (for a total of 9 daily scores).
Paw volume was recorded for each animal on Day 0, 6, 12, 13, 14, 15, 18, 19, and 21 (for a total of 9 measurements). To measure paw volume, animals were gently held with one hand while the hind paw was placed into a plethysmometer with the other hand. Lipid displacement by the paw was recorded and used to represent paw volume.
All data measured and recorded was analyzed using SPSS 16.0 software. Groups were compared using one-way ANOVA and significance was set at p<0.05.

CNC(=O)c1[nH]c(C(=O)NC2CCC2)cc1O[C@@H](C)c1ccccc1 (stereo in doubt) [Example 101, N^5-cyclobutyl-N^2-methyl-3-(1-phenylethoxy)-1H-pyrrole-2,5-dicarboxamide]
day on which paw volume noticeably increased [1]: ~14 days | effect on hind paw volume [1]: less effective at preventing an increase in paw volume over the course of the study; also recorded: performed similarly to GSK620 | average overall clinical score at plateau (3 mg/kg twice daily P.O. (group 5), around day 18): 10 | animals exhibiting signs of disease (3 mg/kg twice daily P.O. (group 5), day 12): Three animals | animals exhibiting disease [2]: 5/8 | animals with a clinical score of 2 in one hind limb [2]: 1/8 | animals exhibiting disease [3]: all animals | animals with clinical scores of at least 2 in one or more hind limbs [3]: 2/8 | animals with a score of 4 in one hind limb and a score of 3 in the other hind limb [4]: 2/8 | animals with scores of 4 in each hind limb [4]: 6/8 | paw volume increase at plateau relative to day 0 (3 mg/kg twice daily P.O. (group 5), plateau at days 18-19): approximately 90% | Average animal paw volume percent change (3 mg/kg, Day 0, left hind paw (L)): 0.00% | Animal paw volume Day 0 L (3 mg/kg, Day 0, left paw, individual animals): 1.36 mL and 1.31 mL (2×) and 1.32 mL (2×) and 1.35 mL and 1.37 mL and 1.34 mL | Average animal paw volume percent change (3 mg/kg, Day 0, right hind paw (R)): 0.00% | Animal paw volume Day 0 R (3 mg/kg, Day 0, right paw, individual animals): 1.38 mL and 1.32 mL (2×) and 1.34 mL (3×) and 1.31 mL and 1.35 mL | Average animal paw volume percent change (3 mg/kg, Day 6, left hind paw (L)): 1.09% | Animal paw volume Day 6 L (3 mg/kg, Day 6, left paw, individual animals): 1.36 mL (2×) and 1.32 mL (2×) and 1.40 mL and 1.31 mL and 1.37 mL and 1.35 mL | Average animal paw volume percent change (3 mg/kg, Day 6, right hind paw (R)): 1.23% | Animal paw volume Day 6 R (3 mg/kg, Day 6, right paw, individual animals): 1.38 mL and 1.33 mL and 1.35 mL and 1.40 mL and 1.36 mL (2×) and 1.32 mL and 1.34 mL | Average animal paw volume percent change (3 mg/kg, Day 12, left hind paw (L)): 5.80% | Animal paw volume Day 12 L (3 mg/kg, Day 12, left paw, individual animals): 1.38 mL and 1.32 mL and 1.39 mL (3×) and 1.42 mL and 1.37 mL and 1.63 mL | Average animal paw volume percent change (3 mg/kg, Day 12, right hind paw (R)): 5.01% | Animal paw volume Day 12 R (3 mg/kg, Day 12, right paw, individual animals): 1.40 mL and 1.43 mL and 1.38 mL (2×) and 1.46 mL and 1.44 mL and 1.36 mL and 1.39 mL | Average animal paw volume percent change (3 mg/kg, Day 13, left hind paw (L)): 15.11% | Animal paw volume Day 13 L (3 mg/kg, Day 13, left paw, individual animals): 1.62 mL and 1.53 mL and 1.50 mL and 1.54 mL and 1.38 mL and 1.86 mL and 1.43 mL and 1.41 mL | Average animal paw volume percent change (3 mg/kg, Day 13, right hind paw (R)): 9.28% | Animal paw volume Day 13 R (3 mg/kg, Day 13, right paw, individual animals): 1.42 mL (2×) and 1.50 mL and 1.41 mL and 1.47 mL and 1.40 mL and 1.68 mL and 1.39 mL | Average animal paw volume percent change (3 mg/kg, Day 14, left hind paw (L)): 27.04% | Animal paw volume Day 14 L (3 mg/kg, Day 14, left paw, individual animals): 1.67 mL and 1.68 mL (2×) and 1.64 mL and 1.59 mL and 2.01 mL and 1.63 mL (2×) | Average animal paw volume percent change (3 mg/kg, Day 14, right hind paw (R)): 19.52% | Animal paw volume Day 14 R (3 mg/kg, Day 14, right paw, individual animals): 1.57 mL and 1.52 mL and 1.41 mL and 1.87 mL and 1.50 mL and 2.04 mL and 1.43 mL (2×) | Average animal paw volume percent change (3 mg/kg, Day 15, left hind paw (L)): 39.96% | Animal paw volume Day 15 L (3 mg/kg, Day 15, left paw, individual animals): 1.72 mL and 1.70 mL and 1.91 mL and 1.65 mL and 2.44 mL and 2.06 mL and 1.74 mL and 1.68 mL | Average animal paw volume percent change (3 mg/kg, Day 15, right hind paw (R)): 43.85% | Animal paw volume Day 15 R (3 mg/kg, Day 15, right paw, individual animals): 1.66 mL and 1.62 mL and 2.31 mL and 1.71 mL and 2.41 mL and 2.02 mL and 1.99 mL and 1.64 mL | Average animal paw volume percent change (3 mg/kg, Day 18, left hind paw (L)): 87.19% | Animal paw volume Day 18 L (3 mg/kg, Day 18, left paw, individual animals): 2.40 mL and 2.65 mL and 2.62 mL and 2.44 mL (2×) and 2.70 mL and 2.47 mL and 2.22 mL | Average animal paw volume percent change (3 mg/kg, Day 18, right hind paw (R)): 89.41% | Animal paw volume Day 18 R (3 mg/kg, Day 18, right paw, individual animals): 2.21 mL and 2.56 mL and 2.65 mL and 2.37 mL and 2.70 mL and 2.55 mL and 2.50 mL and 2.71 mL | Average animal paw volume percent change (3 mg/kg, Day 19, left hind paw (L)): 98.39% | Animal paw volume Day 19 L (3 mg/kg, Day 19, left paw, individual animals): 2.51 mL and 2.85 mL and 2.75 mL and 2.50 mL and 2.71 mL and 2.60 mL and 2.43 mL and 2.79 mL | Average animal paw volume percent change (3 mg/kg, Day 19, right hind paw (R)): 94.99% | Animal paw volume Day 19 R (3 mg/kg, Day 19, right paw, individual animals): 2.21 mL and 2.91 mL and 2.63 mL and 2.37 mL and 2.68 mL and 2.80 mL and 2.49 mL and 2.76 mL | Average animal paw volume percent change (3 mg/kg, Day 21, left hind paw (L)): 100.54% | Animal paw volume Day 21 L (3 mg/kg, Day 21, left paw, individual animals): 2.49 mL and 3.01 mL and 2.76 mL and 2.51 mL and 2.68 mL and 2.64 mL and 2.41 mL and 2.87 mL | Average animal paw volume percent change (3 mg/kg, Day 21, right hind paw (R)): 94.48% | Animal paw volume Day 21 R (3 mg/kg, Day 21, right paw, individual animals): 2.23 mL and 2.91 mL and 2.61 mL and 2.34 mL and 2.69 mL and 2.77 mL (2×) and 2.47 mL | average overall clinical score at plateau [5]: 7 | day on which paw volume increased [5]: ~14 days | effect on hind paw volume [5]: Paw volume increases were delayed; also recorded: more effective at controlling paw volume | paw volume relative to CIA + vehicle (group 2) [5]: significantly decreased relative to group 2 on days 19 and 21 (both paws, p<0.05) | animals exhibiting signs of disease [6]: 3/8 | animals with a score of 2 in one hind limb [6]: one animal | animals exhibiting disease (10 mg/kg twice daily P.O. (group 6), day 13): 4/8 | animals with a score of 3 in one or more hind limbs [7]: 3/8 | animals with a score of 4 in a hind limb [7]: 1/8 | animals exhibiting disease (10 mg/kg twice daily P.O. (group 6), day 15): 7/8 | animals with scores of 4 in one or more hind limbs (10 mg/kg twice daily P.O. (group 6), day 18): 4/8 | animals exhibiting disease (10 mg/kg twice daily P.O. (group 6), day 19): all animals
